Structures can show the parent of a compound that is named as a salt.

Data on 59 compounds can be found in patent US11179412B2, “Methods of treating conditions involving elevated inflammatory response” (University of Pittsburgh—Of the Commonwealth System of …, priority 2017, dated 2021).

In this assay the test system is STING activation (IFNβ release) in iBMDMs. The assay can be described thus: IFNβ release ELISA after STING ligand (or LPS) stimulation, iBMDMs. It counts as cell-based, mouse. As to conditions: iBMDMs; 3′3′-cGAMP 10 μg/ml, 16 hours; compound 10 μM. The text has this:
Commercially available enzyme-linked immunosorbent assay (ELISA) kits were used to measure the concentrations of mouse IFNβ (Thermo Fisher Scientific) or human IFNβ (Thermo Fisher Scientific) in culture medium according to the manufacturer's instructions. […]
(In general: In an ELISA, binding on a coated surface is turned into a signal by an enzyme label.)

In the case of `Cn1c(N2CCCCS2(=O)=O)nc(C(=O)NCc2ccc(F)cc2)c(O)c1=O` [BMS-707035], the “fold increase in IFN-β release” value is given as 1.59 fold. The value for `O=C(Oc1cc(S(=O)(=O)c2ccccc2)ccc1[N+](=O)[O-])c1ccc(Cl)cc1` [BTB06584] was 3.11 fold. For `O=C(Nc1cccc(Nc2ncc(Br)c(NCCc3cnc[nH]3)n2)c1)N1CCCC1` [BX-912], the “fold increase in IFN-β release” value stood at 1.86 fold. The value for `CNC(=O)[C@H](Cc1ccccc1)NC(=O)[C@H](CC(C)C)[C@H](CSc1cccs1)C(=O)NO` [Batimastat (BB-94), Batimastat] was 1.20 fold; that for `Cc1c(-c2ccc(O)cc2)n(Cc2ccc(OCCN3CCCCCC3)cc2)c2ccc(O)cc12` [Bazedoxifene HCl] was 0.15 fold. The value for `O=C(/C=C/c1cccc(S(=O)(=O)Nc2ccccc2)c1)NO` [Belinostat (PXD101), Belinostat] was 0.70 fold; that for `COc1c(O)cc2c(c1O)[C@@H]1O[C@H](CO)[C@@H](O)[C@H](O)[C@H]1OC2=O` [Bergenin] was 0.57 fold; that for `CC[C@H](NC(=O)[C@H](C)NC)C(=O)N1C[C@@H](O)C[C@H]1Cc1c(-c2[nH]c3cc(F)ccc3c2C[C@@H]2C[C@H](O)CN2C(=O)[C@H](CC)NC(=O)[C@H](C)NC)[nH]c2cc(F)ccc12` [Birinapant] was 1.15 fold. Take `CC(C)NCC(O)COc1ccc(COCCOC(C)C)cc1` (centres unmarked) [Bisoprolol fumarate]: the “fold increase in IFN-β release” value is 0.70 fold. The value for `CC(C)C[C@H](NC(=O)[C@H](Cc1ccccc1)NC(=O)c1cnccn1)B(O)O` [Bortezomib (PS-341), Bortezomib] was 0.37 fold. The same measure for `COc1ccccc1Oc1c(NS(=O)(=O)c2ccc(C(C)(C)C)cc2)nc(-c2ncccn2)nc1OCCO` [Bosentan Hydrate]: 1.20 fold; for `COc1cc(Nc2c(C#N)cnc3cc(OCCCN4CCN(C)CC4)c(OC)cc23)c(Cl)cc1Cl` [Bosutinib (SKI-606), Bosutinib]: 1.78 fold. For the compound `CCN[C@H]1CN(CCCOC)S(=O)(=O)c2sc(S(N)(=O)=O)cc21` [Brinzolamide], the “fold increase in IFN-β release” value is listed as 1.93 fold. The value for `CCCCN1CCCCC1C(=O)Nc1c(C)cccc1C` (centres unmarked) [Bupivacaine HCl] was 0.42 fold.

On to `NC1(Cc2ccc(Cl)cc2)CCN(c2ncnc3[nH]ccc23)CC1` [CCT128930], for which the “fold increase in IFN-β release” value is recorded as 1.46 fold.

On to `CC(C)C[C@H](NC(=O)[C@@H](NC(=O)c1cccc(-c2ccccc2)n1)[C@@H](C)O)B(O)O` [CEP-18770 (Delanzomib), Delanzomib], for which the “fold increase in IFN-β release” value is given as 0.82 fold. With `Cc1c(NC(=O)c2ccc(C(C)(C)C)cc2)cccc1-c1cn(C)c(=O)c(Nc2ccc(C(=O)N3CCOCC3)cc2)n1` [CG11746], the “fold increase in IFN-β release” value came out at 0.16 fold. The value for `O=C(NC(NC(=S)Nc1ccc(F)c([N+](=O)[O-])c1)C(Cl)(Cl)Cl)C(c1ccccc1)c1ccccc1` (centres unmarked) [CGK 733] was 2.50 fold.

For `Nc1ncnc2n[nH]c(Nc3ccc(F)cc3)c12` [CGP 57380], the “fold increase in IFN-β release” value worked out at 0.54 fold.

On to `CCNC(=O)[C@H]1O[C@@H](n2cnc3c(N)nc(NCCc4ccc(CCC(=O)O)cc4)nc32)[C@H](O)[C@@H]1O` [CGS 21680 HCl], for which the “fold increase in IFN-β release” value was 2.00 fold. The value for `O=c1[nH]c2ccc(Cl)cc2c(N[C@@H]2CN3CCC2CC3)c1-c1nc2ccccc2[nH]1` [CHIR-124] was 1.30 fold.

Consider `Cc1[nH]c2ccccc2c1CCNC(=O)c1cccs1` [CK-636], for which the “fold increase in IFN-β release” value was 2.06 fold. The value for `C=CC(=O)Nc1cccc(Nc2nc(Nc3ccc(Oc4ccnc(C(=O)NC)c4)cc3)ncc2F)c1` [CNX-774] was 0.73 fold; that for `C=CC(=O)Nc1cccc(Nc2nc(Nc3ccc(NC4CN(CCF)C4)cc3OC)ncc2C(F)(F)F)c1` [CNX-2006] was 1.93 fold; that for `CN(C)C(=O)[C@H](O)[C@H](Cc1ccccc1)NC(=O)c1cc2cc(Cl)ccc2[nH]1` [CP-91149] was 0.14 fold. The same measure for `COCCOc1ccc2c(c1)ncn2-c1ccc2cccc(N3CCC(N)CC3)c2n1` [CP-673451]: 0.27 fold.

On to `O=C(O)c1cc2cccc([N+](=O)[O-])c2[nH]1` [CRT0044876], for which the “fold increase in IFN-β release” value was 2.75 fold. The same measure for `O=C(O)c1cc(I)ccc1NC(=O)[C@H](Cc1ccccc1)NCc1ccccc1` [CW069]: 4.03 fold; for `O=C(/C=C/c1ccc(O)c(O)c1)OCCc1ccccc1` [Caffeic Acid Phenethyl Ester]: 0.44 fold.

Regarding `Cc1ccc([C@@H]2O[C@H](CO)[C@@H](O)[C@H](O)[C@H]2O)cc1Cc1ccc(-c2ccc(F)cc2)s1` [Canagliflozin], the “fold increase in IFN-β release” value is 1.58 fold.

Regarding `CCOc1nc2cccc(C(=O)O)c2n1Cc1ccc(-c2ccccc2-c2nnn[nH]2)cc1` [Candesartan], the “fold increase in IFN-β release” value worked out at 2.31 fold. The same measure for `C[C@H](CS)C(=O)N1CCC[C@H]1C(=O)O` [Captopril]: 2.62 fold. The same measure for `COc1ccccc1OCCNCC(O)COc1cccc2[nH]c3ccccc3c12` (centres unmarked) [Carvedilol]: 1.87 fold; for `Cc1ccc(-c2cc(C(F)(F)F)nn2-c2ccc(S(N)(=O)=O)cc2)cc1` [Celecoxib]: 0.76 fold; for `COc1ccc([C@]2(C#N)CC[C@@H](C(=O)O)CC2)cc1OC1CCCC1` [Cilomilast]: 2.08 fold. For the compound `C[C@@H](NCCCc1cccc(C(F)(F)F)c1)c1cccc2ccccc12` [Cinacalcet HCl], the “fold increase in IFN-β release” value is recorded as 0.55 fold. On to `CN1CCC[C@@H]1CCO[C@](C)(c1ccccc1)c1ccc(Cl)cc1` [Clemastine Fumarate], for which the “fold increase in IFN-β release” value is reported as 1.32 fold. The same measure for `C=C1C(=O)O[C@@H]2/C=C(\C)CC/C=C(\C)CC[C@@H]12` [Costunolide]: 0.37 fold.

As to `CC1(COc2ccc3c(c2)ncn3-c2ccc3cccc(N4CCC(N)CC4)c3n2)COC1` [Crenolanib (CP-868596), Crenolanib], the “fold increase in IFN-β release” value turned out to be 0.32 fold. The same measure for `C[C@H]1COC2=C1C(=O)C(=O)c1c2ccc2c1CCCC2(C)C` [Cryptotanshinone]: 0.17 fold; for `CC(=O)O[C@]1(C(C)=O)CC[C@H]2[C@@H]3C=C(Cl)C4=CC(=O)[C@@H]5C[C@@H]5[C@]4(C)[C@H]3CC[C@@]21C` [Cyproterone Acetate]: 1.24 fold. With `c1ccc(CNc2nc(NCc3ccccc3)c3ccccc3n2)cc1` [DBeQ], the “fold increase in IFN-β release” value was found to be 2.18 fold. Regarding `CNC(=O)c1cc(Oc2ccc(NC(=O)Nc3cc(C(C)(C)C)nn3-c3ccc4ncccc4c3)c(F)c2)ccn1` [DCC-2036 (Rebastinib), Rebastinib], the “fold increase in IFN-β release” value is 1.71 fold. The value for `CC(C)Oc1ccc(-c2cnc3c(-c4ccnc5ccccc45)cnn3c2)cc1` [DMH1] was 1.43 fold; that for `Cc1ccc2c(=O)c3cccc(CC(=O)O)c3oc2c1C` [DMXAA (Vadimezan), 5,6-dimethylxanthenone-4-acetic acid] was 3.23 fold. The same measure for `CC(C)(C)c1nc(-c2cccc(NS(=O)(=O)c3c(F)cccc3F)c2F)c(-c2ccnc(N)n2)s1` [Dabrafenib (GSK2118436), Dabrafenib]: 0.86 fold; for `CCC(CC)CC1(C(=O)Nc2ccccc2SC(=O)C(C)C)CCCCC1` [Dalcetrapib (JTT-705, RO4607381), Dalcetrapib]: 0.13 fold; for `CCOc1ccc(Cc2cc([C@@H]3O[C@H](CO)[C@@H](O)[C@H](O)[C@H]3O)ccc2Cl)cc1` [Dapagliflozin]: 1.57 fold. Consider `COc1cccc2c1C(=O)c1c(O)c3c(c(O)c1C2=O)C[C@@](O)(C(C)=O)C[C@@H]3O[C@H]1C[C@H](N)[C@H](O)[C@H](C)O1` [Daunorubicin HCl], for which the “fold increase in IFN-β release” value stood at 0.11 fold. The value for `COc1cc2nc(N3CCN(C(=O)C4COc5ccccc5O4)CC3)nc(N)c2cc1OC` (centres unmarked) [Doxazosin Mesylate] was 0.69 fold; that for `C[C@]12C=CC(=O)N[C@@H]1CC[C@@H]1[C@@H]2CC[C@]2(C)[C@@H](C(=O)Nc3cc(C(F)(F)F)ccc3C(F)(F)F)CC[C@@H]12` [Dutasteride] was 0.51 fold. The value for `O=C(N/N=C/c1ccc(O)c(O)c1)c1cc2ccccc2cc1O` [Dynasore] was 1.62 fold; that for `CC(C)C[C@H](NC(=O)[C@H]1O[C@@H]1C(=O)O)C(=O)NCCCCN=C(N)N` [E-64] was 0.17 fold; that for `CCn1c2ccccc2c2cc(Nc3ccnc(NCCCN4CCOCC4)n3)ccc21` [EHop-016] was 1.69 fold.

For the compound `CCN(c1cc(-c2ccc(CN3CCOCC3)cc2)cc(C(=O)NCc2c(C)cc(C)[nH]c2=O)c1C)C1CCOCC1` [EPZ-6438], the “fold increase in IFN-β release” value is on record as 1.03 fold. Take `COc1cccc(C=NCCN=Cc2cccc(OC)c2[O-])c1[O-].[Cl-].[Mn+3]` [EUK 134]: the “fold increase in IFN-β release” value came to 1.10 fold. The same measure for `NC(=O)C1CCCc2c1[nH]c1ccc(Cl)cc21` (centres unmarked) [EX 527 (Selisistat), Selisistat]: 0.98 fold. The value for `COc1cc2c(cc1Cc1cccc(Cl)c1F)c(=O)c(C(=O)O)cn2[C@H](CO)C(C)C` [Elvitegravir (GS-9137, JTK-303), Elvitegravir] was 2.56 fold. The value for `CCCCCCCCCCCC1=C(O)C(=O)C=C(O)C1=O` [Embelin] was 0.17 fold.
